This is an account of results in US6939686B2, “Methodology of using raman imaging microscopy for evaluating drug action within living cells” (Southwest Research Institute, priority 2000, dated 2005).

This data set deals with MDA435 breast cancer cells. As to the kind of experiment: Ratio Raman imaging of drug uptake and distribution in a single living cell. Type of data set: cell-based. Here is the method: Raman imaging of the cell-drug interactions consists of several steps. First, the Raman spectrum of the drug is measured. From the Raman spectrum, the locations and relative intensities of the Raman peaks (or Raman modes) is determined. The combination of the multiple Raman peaks and their relative intensities provides a unique fingerprint of the drug. In the preferred embodiment, the Raman spectrum of the anticancer drug taxol was measured as illustrated in FIG. 1. From the spectrum the most significant Raman mode is 1002 cm^−1.
In the preferred embodiment the Raman signal of a breast tumor cell was studied and the Raman spectrum was measured. […] The laser beam was focused in the cell cytoplasm and nucleus areas to determine if there was any difference in their spectra. Each measurement was 120 seconds long. FIGS. 2 and 3 illustrate the Raman spectra of the cytoplasm and nucleus of the breast tumor cell, respectively. […]
The acquired Raman images are then processed by smoothing noises, de-blurring, and removing the intensity contributed from the fluorescence. […]
The restored Raman signal still contained the non-uniform illumination effect and fluorescent contribution, illustrated as follows: s(x,y)=K(x,y)·i(x,y)·t+Ko(x,y)·i(x,y)·t. From the Raman spectra illustrated in FIGS. 1-3, Raman peaks are riding on a broadband baseline that is contributed from the fluorescence. […]

Turning to `CC(=O)O[C@H]1C(=O)[C@@]2(C)[C@H]([C@H](OC(=O)c3ccccc3)[C@]3(O)C[C@H](OC(=O)[C@H](O)[C@@H](NC(=O)c4ccccc4)c4ccccc4)C(C)=C1C3(C)C)[C@]1(OC(C)=O)CO[C@@H]1C[C@@H]2O` [taxol], the “drug distribution within the cell (ratio Raman image at 1002 cm^−1)” value (breast tumor cell exposed to 0.3 mg/ml taxol solution for one hour, FIG. 5(b)) was “taxol entered the tumor cell from the top membrane and gradually penetrated into the center of the cell”. Also, the “drug distribution at different depths of the cell (stack of ratio Raman images)” value (breast tumor cell treated with 0.3 mg/ml taxol solution for one hour, FIG. 7) was “More drug entered the cell from the middle layer (Z=6 μm)”.
